How the values were obtained:
AhR = molecular target: T1, AhR (Homo sapiens, UniProt P35869); assay: Inhibition of AhR-mediated gene transcription (HEK-XRE 11.1 luciferase reporter, MeBIO induction); format: cell-based; conditions: HEK-XRE 11.1 cells, MeBIO 0.1 nM, luminescence after 24 hours
T1 construct: One of the resultant clones was named HEK-XRE 11.1, and used in the reporter gene assays; endogenous in cells; host or cells: HEK-XRE 11.1 (HEK cells stably carrying the AhR-responsive luciferase reporter X4-4.27 and phRL-CMV)
T1 sequence (P35869 11-848): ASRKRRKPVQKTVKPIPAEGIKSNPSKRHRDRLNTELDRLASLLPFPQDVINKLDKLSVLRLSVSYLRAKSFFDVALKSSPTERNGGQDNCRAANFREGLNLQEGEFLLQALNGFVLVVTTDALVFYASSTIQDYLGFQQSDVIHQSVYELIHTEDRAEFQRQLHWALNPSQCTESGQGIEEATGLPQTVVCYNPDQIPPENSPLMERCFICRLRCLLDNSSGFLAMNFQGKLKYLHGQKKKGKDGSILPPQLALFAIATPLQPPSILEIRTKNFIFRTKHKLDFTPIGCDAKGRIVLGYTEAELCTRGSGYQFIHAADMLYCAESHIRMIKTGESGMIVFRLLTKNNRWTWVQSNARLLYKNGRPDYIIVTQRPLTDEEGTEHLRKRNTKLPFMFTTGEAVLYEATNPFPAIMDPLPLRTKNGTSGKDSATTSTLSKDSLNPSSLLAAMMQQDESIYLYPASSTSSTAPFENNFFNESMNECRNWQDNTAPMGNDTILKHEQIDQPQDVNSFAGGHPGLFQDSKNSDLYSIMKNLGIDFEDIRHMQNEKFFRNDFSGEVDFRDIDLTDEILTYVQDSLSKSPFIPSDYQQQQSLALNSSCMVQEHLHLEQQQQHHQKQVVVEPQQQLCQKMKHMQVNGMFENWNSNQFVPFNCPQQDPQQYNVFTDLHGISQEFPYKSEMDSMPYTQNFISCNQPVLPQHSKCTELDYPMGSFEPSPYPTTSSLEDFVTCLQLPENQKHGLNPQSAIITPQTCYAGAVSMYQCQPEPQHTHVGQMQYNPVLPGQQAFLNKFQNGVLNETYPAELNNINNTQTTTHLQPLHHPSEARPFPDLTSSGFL
Method: HEK cells line was transfected with an AhR-responsive firefly luciferase reporter gene X4-4.27 and the stable transfectants generated were again transfected with phRL-CMV (a Renilla luciferase expression vector; Promega) along with pBAsi-hU6 Pur DNA (a plasmid carrying the puromycin-resistant gene; TaKaRa, Shiga, Japan), and maintained in the presence of both hygromycin B and puromycin (2 mg/mL). One of the resultant clones was named HEK-XRE 11.1, and used in the reporter gene assays.
HEK-XRE 11.1 cells were plated in 384-well plates at a density of 25,000 cells in 50 uL volume per well. The induction of ARh pathway was done by addition of MeBIO at 0.1 nM concentration. ARh antagonist compounds were then added to seeded cells in serial dilutions (8 dilutions, 1:[…] down to 5 nM) in duplicate wells. Renilla expression was not used as internal control. On each plate, Compound 1001 and SR1 were added as dose control (8 dilutions, 1:3, 5 mM down to 2.5 nM for SR1 and 2 mM down to 1 nM for compound 1001). Luminescence activity was evaluated after 24 hours culture using Lumi-384-CellTiterGlo-Corning protocol. Dose-response curves were generated using nonlinear regression in Excel.

[1] = test system: Human CD34+ cord blood (CB) cells; assay: CD34+ activity assessment (7-day expansion of pre-expanded CD34+ cells, flow cytometry); format: cell-based; conditions: concentration at which compound/vehicle ratio of CD34+ cell number is >= 1.5; 7 days, with 35 nM UM0128171; Table 1
Method: Human CD34+ cord blood (CB) cells were isolated from fresh units using RosetteSep™ 0034 pre-enrichment cocktail followed by CD34 positive selection using EasySep Kit™ (StemCell Technologies). The cells were then pre-expanded in bulk, by culturing at 37° C. for 6 days in HSC expansion media consisting of StemSpan ACF (StemCell Technologies) supplemented with 100 ng/mL Stem Cell Factor (SCF, Shenandoah), 100 ng/mL FMS-like Tyrosine Kinase 3 Ligand (FLT3L, Shenandoah), 50 ng/mL Thrombopoietin (TPO, Shenandoah), 2 mM GlutaMAX™ (Invitrogen), 10 μg/mL low density lipoproteins (LDL, StemCell Technologies), 10 μg/mL Ciprofloxacin and 35 nM UM0128171. […] Following the pre-expansion, cells were harvested, aliquoted and frozen until use.
For each activity assessment, CD34+ pre-expanded cells (approximately 2000 per well in a 384-well plate) were cultured in HSC expansion media, in the presence of 35 nM UM0128171. Compounds were serially diluted (1/2) in DMSO (10 dilutions per compound) and added to the cells in order to achieve a 1/1000 final dilution. StemRegenin1 (SR1) and/or Compound 1001 were included in all experiments as controls to monitor assay performance. The plate was incubated at 37° C. for 7 days in static conditions (i.e. no shaking and no addition of media). Flow cytometry analysis was performed at the end of the 7-day expansion. Cells were stained with PE-labeled anti-human CD45RA (BD Biosciences) and APC-labeled anti-human CD34 (BD Biosciences) and analyzed using Intellicyt IQue cytometer equipped with ForeCyt software. Gates were drawn around the populations of interest to obtain cell numbers and relative proportions. The EC1.5 value, which is the concentration at which the compound/vehicle ratio is greater or equal to 1.5, was calculated by plotting the CD34+ cell number against concentrations (log-scale) in a 4-PL curve and fitting the curve using IDBS XLfit (set model 251) in Microsoft Excel.

Row | Structure (SMILES) | IC50 (AhR; Table 1) | EC1.5 [1] | IC50 (AhR; Table 2)
1 | Nc1c(C(=O)Nc2ccc(F)cc2)sc2nc3c(cc12)CCC3 [Compound 1002] | < 50 nM | – | –
2 | Nc1c(C(=O)Nc2ccccc2)sc2ncc(Br)cc12 [Compound 1003] | < 50 nM | – | –
3 | Nc1c(C(=O)Nc2ccccc2)sc2ncc(Cl)cc12 [Compound 1004] | < 50 nM | 100 to 1000 nM | –
4 | Cc1cc2c(N)c(C(=O)Nc3ccccc3)sc2nc1C [Compound 1005] | 50 to 500 nM | 100 to 1000 nM | –
5 | Nc1c(C(=O)Nc2cccnc2)sc2nc3c(cc12)CCC3 [Compound 1006] | 50 to 500 nM | 1000 to 5000 nM | –
6 | Nc1c(C(=O)Nc2ccccn2)sc2nc3c(cc12)CCC3 [Compound 1007] | < 50 nM | 100 to 1000 nM | –
7 | Nc1c(C(=O)Nc2ccccc2)sc2ncc(C(F)(F)F)cc12 [Compound 1008] | > 500 nM | 100 to 1000 nM | –
8 | Cc1cnc2sc(C(=O)Nc3ccccc3)c(N)c2c1 [Compound 1009] | < 50 nM | – | –
9 | Nc1c(C(=O)Nc2ccccc2)sc2ncc(F)cc12 [Compound 1010] | 50 to 500 nM | >5000 nM | –
10 | Nc1c(C(=O)Nc2ccncc2)sc2ncc(Cl)cc12 [Compound 1011] | < 50 nM | 1000 to 5000 nM | –
11 | Nc1c(C(=O)Nc2ccncc2)sc2ncc(Br)cc12 [Compound 1012] | 50 to 500 nM | – | –
12 | Nc1c(C(=O)Nc2ccncc2)sc2ncc(C(F)(F)F)cc12 [Compound 1013] | > 500 nM | 100 to 1000 nM | –
13 | Nc1c(C(=O)Nc2ccncc2)sc2nc3c(cc12)CCC3 [Compound 1014] | 50 to 500 nM | 1000 to 5000 nM | –
14 | Nc1c(C(=O)Nc2cccnc2)sc2ncc(C(F)(F)F)cc12 [Compound 1015] | > 500 nM | 100 to 1000 nM | –
15 | N#Cc1cnc2sc(C(=O)Nc3ccccc3)c(N)c2c1 [Compound 1016] | > 500 nM | 100 to 1000 nM | –
16 | Nc1c(C(=O)Nc2ccc(CCO)cc2)sc2ncc(C(F)(F)F)cc12 [Compound 1017] | 50 to 500 nM | 100 to 1000 nM | –
17 | COCc1ccc(NC(=O)c2sc3ncc(C(F)(F)F)cc3c2N)cc1 [Compound 1018] | < 50 nM | 1000 to 5000 nM | –
18 | Nc1c(C(=O)Nc2ccc(CO)cc2)sc2ncc(C(F)(F)F)cc12 [Compound 1019] | > 500 nM | >5000 nM | –
19 | C#Cc1cnc2sc(C(=O)Nc3ccncc3)c(N)c2c1 [Compound 1020] | 50 to 500 nM | – | –
20 | CCc1cnc2sc(C(=O)Nc3ccncc3)c(N)c2c1 [Compound 1021] | 50 to 500 nM | – | –
21 | Nc1c(C(=O)Nc2ccccn2)sc2ncc(C(F)(F)F)cc12 [Compound 1022] | < 50 nM | 100 to 1000 nM | –
22 | Cc1cnc(NC(=O)c2sc3ncc(C(F)(F)F)cc3c2N)s1 [Compound 1023] | 50 to 500 nM | >5000 nM | –
23 | CCc1ccc(NC(=O)c2sc3ncc(C(F)(F)F)cc3c2N)cc1 [Compound 1024] | < 50 nM | 100 to 1000 nM | –
24 | Nc1c(C(=O)Nc2ccccc2)sc2cnc(C(F)(F)F)cc12 [Compound 1025] | < 50 nM | 100 to 1000 nM | –
25 | Nc1c(C(=O)Nc2ccncc2)sc2cnc(C(F)(F)F)cc12 [Compound 1026] | 50 to 500 nM | 1000 to 5000 nM | –

Row | Structure (SMILES) | IC50 (AhR; Table 1) | EC1.5 [1] | IC50 (AhR; Table 2)
26 | Nc1c(C(=O)Nc2ccccc2)sc2ccc(C(F)(F)F)nc12 [Compound 1027] | < 50 nM | >5000 nM | –
27 | Nc1c(C(=O)Nc2ccncc2)sc2ccc(C(F)(F)F)nc12 [Compound 1028] | 50 to 500 nM | >5000 nM | –
28 | Nc1c(C(=O)Nc2ccc3ncsc3c2)sc2ncc(C(F)(F)F)cc12 [Compound 1029] | 50 to 500 nM | 100 to 1000 nM | –
29 | Nc1c(C(=O)Nc2ccc(-c3ccccc3)cc2)sc2ncc(C(F)(F)F)cc12 [Compound 1030] | 50 to 500 nM | >5000 nM | –
30 | Nc1c(C(=O)Nc2ccc(OCc3ccccc3)cc2)sc2ncc(C(F)(F)F)cc12 [Compound 1031] | 50 to 500 nM | 100 to 1000 nM | –
31 | CCOC(=O)Cc1ccc(NC(=O)c2sc3ncc(C(F)(F)F)cc3c2N)cc1 [Compound 1032] | 50 to 500 nM | 1000 to 5000 nM | –
32 | COc1ccc(NC(=O)c2sc3ncc(C(F)(F)F)cc3c2N)cc1-c1ccccc1 [Compound 1033] | 50 to 500 nM | 100 to 1000 nM | –
33 | Nc1c(C(=O)Nc2ccccc2)sc2ccc(C(F)(F)F)cc12 [Compound 1034] | < 50 nM | 100 to 1000 nM | –
34 | Nc1c(C(=O)Nc2ccncc2)sc2ccc(C(F)(F)F)cc12 [Compound 1035] | < 50 nM | 100 to 1000 nM | –
35 | Nc1c(C(=O)Nc2cccc(Br)c2)sc2ncc(C(F)(F)F)cc12 [Compound 1036] | < 50 nM | 100 to 1000 nM | –
36 | Nc1c(C(=O)Nc2ccc(Br)cc2)sc2ncc(C(F)(F)F)cc12 [Compound 1037] | < 50 nM | – | –
37 | N#CCc1ccc(NC(=O)c2sc3ncc(C(F)(F)F)cc3c2N)cc1 [Compound 1038] | < 50 nM | >5000 nM | –
38 | Nc1c(C(=O)Nc2ccc(Br)cc2)sc2cnc(C(F)(F)F)cc12 [Compound 1049] | 50 to 500 nM | – | –
39 | Nc1c(C(=O)Nc2ccc(-c3cccnc3)cc2)sc2ncc(C(F)(F)F)cc12 [Compound 1055] | 50 to 500 nM | – | –
40 | Nc1c(C(=O)Nc2ccc(F)cc2)sc2ncc(C(F)(F)F)cc12 [Compound 1060] | < 50 nM | – | –
41 | C=C(C)c1cnc2sc(C(=O)Nc3ccccc3)c(N)c2c1 [Compound 1090] | < 50 nM | – | –
42 | CC(C)c1cnc2sc(C(=O)Nc3ccccc3)c(N)c2c1 [Compound 1103] | < 50 nM | – | –
43 | C=CCc1cnc2sc(C(=O)Nc3ccccc3)c(N)c2c1 [Compound 1111] | 50 to 500 nM | – | –
44 | CCc1cnc2sc(C(=O)Nc3ccccc3)c(N)c2c1 [Compound 1112] | 50 to 500 nM | – | –
45 | Cc1ccc2sc(C(=O)Nc3ccccc3)c(N)c2c1 [Compound 1118] | < 50 nM | – | –
46 | Nc1c(C(=O)Nc2ccc(F)cn2)sc2ncc(C(F)(F)F)cc12 [Compound 1128] | – | 100 to 1000 nM | –
47 | CSc1ccc(NC(=O)c2sc3ncc(C(F)(F)F)cc3c2N)cc1 [Compound 1133] | < 50 nM | – | –
48 | CCCc1cnc2sc(C(=O)Nc3ccccc3)c(N)c2c1 [Compound 1134] | < 50 nM | – | –
49 | Nc1c(C(=O)Nc2ccccc2)oc2nc3c(cc12)CCC3 [Compound 1153] | – | – | 50 to 500 nM
